Measurements as given in patent publication US20230365563A1, “QUINAZOLINE COMPOUND AND APPLICATION THEREOF” (SHANGHAI PHARMACEUTICALS HOLDING CO., LTD., priority 2020, published 2023).
pIC50: −log10 of the molar value. Several values for one entry are separate records, joined by “and”; a condition that tells them apart may be missing. Equal entries are not always repeated. Structures can show the parent of a compound that is named as a salt.

Legend:
KRAS-G12D and SOS1 = biological target: T1, KRAS-G12D and SOS1 (Homo sapiens, UniProt P01116, G12D); assay: Inhibition of KRAS-G12D/SOS1 binding (Cisbio binding kit, 665/615 ratio), Effect Embodiment A; conditions: read-out: GTP-KRAS-G12D:SOS1 IC50
T1 construct: purchased
Method in brief: (§1)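 Test compounds were serially diluted 3-fold from the storage solution over 11 points and dispensed in duplicate wells at 1% final DMSO.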

KRAS_WT and SOS1 = biological target: T2, KRAS_WT and SOS1 (Homo sapiens, UniProt P01116); assay: Inhibition of KRAS_WT/SOS1 binding (Cisbio binding kit, 665/615 ratio), Effect Embodiment C; conditions: read-out: GTP-KRAS-WT:SOS1 IC50
T2 construct: purchased
Method in brief: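 Compounds tested as 3-fold, 11-point dilutions in duplicate at 1% DMSO final against the KRAS_WT/SOS1 binding system. IC50 derived by nonlinear regression fit.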

KRAS_G12D and cRAF = biological target: T3, KRAS_G12D and cRAF (Homo sapiens, UniProt P01116, G12D); assay: Inhibition of KRAS_G12D/cRAF binding (Cisbio binding kit, 665/615 ratio), Effect Embodiment B; conditions: read-out: GTP-KRAS-G12D:CRAF IC50
T3 construct: purchased
Method in brief: as §1

Compound	pIC50 (KRAS-G12D and SOS1)	pIC50 (KRAS_WT and SOS1)	pIC50 (KRAS_G12D and cRAF)
CCc1cccc2cc(O)cc(-c3c(F)cc4c(N5CC6CCC(C5)N6)nc(OC[C@H](C)CN5C6CCC5CC(OC)C6)nc4c3F)c12 (single isomer, unassigned) [Compound 286a, (S or R)-4-(4-((1R,5S)-3,8-diazabicyclo[3.2.1]octan-3-yl)-6,8-difluoro-2-((R)-3-((1R,3S,5S)-3-methoxy-8-azabicyclo[3.2.1]octan-8-yl)-2-methylpropoxy)quinazolin-7-yl)-5-ethylnaphthalen-2-o1 dihydrochloride]	7.87	6.58	8.01
C=CCN1CCC[C@H]1COc1nc(N2CC3CCC(C2)N3)c2cc(F)c(-c3cc(O)cc4ccc(F)c(CC)c34)c(F)c2n1 (single isomer, unassigned) [Compound 287a, 4-((S or R)-2-((S)-1-allylpyrrolidin-2-yl)methoxy)-4-((1R,5S)-3,8-diazacyclo[3.2.1]octan-3-yl)-6,8-difluoroquinazolin-7-yl)-5-ethyl-6-fluoronaphthalen-2-ol dihydrochloride]	8.00	7.54	7.95
CCc1c(F)ccc2cc(O)cc(-c3c(Cl)cc4c(N5CC6CCC(C5)N6)nc(OCCCN5C6CCC5COC6)nc4c3F)c12 (single isomer, unassigned) [compound 251]	7.56	6.59	7.17
Oc1cc(-c2c(Cl)cc3c(N4CC5CCC(C4)N5)nc(OCCCN4C5CCC4COC5)nc3c2F)c2cc(F)ccc2c1 (single isomer, unassigned) [compound 252]	7.66	6.38	7.32
Cn1cnc(Cn2ccc3ccc(CNCc4[nH]c5ccccc5c4[C@H]4NC(=O)c5ccc(O)cc54)cc32)c1 [BI-2852, reference compound]	6.62	6.87	5.57
CN(C)CCCOc1nc(N2C[C@H]3CC[C@@H](C2)N3)c2cnc(-c3cc(O)cc4ccccc34)c(F)c2n1 [Compound 82, 4-(4-((1R,5S)-3,8-diazabicyclo[3.2.1]octan-3-yl)-2-(3-(dimethylamino)propoxy)-8-fluoropyrido[4,3-d]pyrimidin-7-yl)naphthalen-2-ol]	7.67	5.81	6.99
CN1C[C@@H](F)C[C@H]1COc1nc(N2CC3CCC(C2)N3)c2cnc(-c3cc(O)cc4ccccc34)c(F)c2n1 [Compound 129, 4-(4-((1R,5S)-3,8-diazabicyclo[3.2.1]octan-3-yl)-8-fluoro-2-((2S,4S)-4-fluoro-1-methylpyrrolidin-2-yl)methoxy)pyridinyl[4.3-d]pyrimidin-7-yl)naphthalen-2-ol ditrifluoroacetate]	7.38	5.64	6.75
CN1C[C@H](F)C[C@H]1COc1nc(N2CC3CCC(C2)N3)c2cnc(-c3cc(O)cc4ccccc34)c(F)c2n1 [Compound 131]	7.68	6.65	7.43
C[C@H]1C[C@@H](COc2nc(N3CC4CCC(C3)N4)c3cnc(-c4cc(O)cc5ccccc45)c(F)c3n2)N(C)C1 [Compound 133, 4-(4-((1R,5S)-3.8-diazabicyclo[3.2.1]octan-3-yl)-2-((2S,4S)-1,4-dimethylpyrrolidin-2-yl)methoxy)-8-fluoropyridinyl[4,3-d]pyrimidin-7-yl)naphthalen-2-ol trifluoroacetate]	7.71	7.07	7.73
CO[C@@H]1C[C@@H](COc2nc(N3CC4CCC(C3)N4)c3cnc(-c4cc(O)cc5ccccc45)c(F)c3n2)N(C)C1 [Compound 134, 4-(4-((1R,5S)-3,8-diazabicyclo[3.2.1]octan-3-yl)-8-fluoro-2-((2S,4R)-4-methxoy-1-methylpyrrolidin-2-yl)methoxy)pyridinyl[4,3-d]pyrimidin-7-yl)naphthalen-2-ol diformate]	7.75	6.30	7.58
CN1CCC[C@@]1(C)COc1nc(N2CC3CCC(C2)N3)c2cnc(-c3cc(O)cc4ccccc34)c(F)c2n1 [Compound 136, 4-(4-((1R,5S)-3,8-diazabicyclo[3.2.1]octan-3-yl)-2-((S)-1,2-methylpyrrolidin-2-yl)methoxy)-8-fluoropyridinyl[4,3-d]pyrimidin-7-yl)naphthalen-2-ol diformate]	7.51	5.93	7.17
CN1CC2(CC2)C[C@H]1COc1nc(N2CC3CCC(C2)N3)c2cnc(-c3cc(O)cc4ccccc34)c(F)c2n1 [Compound 137, 4-(4-((1R,5S)-3,8-diazabicyclo[3.2.1]octan-3-yl)-8-fluoro-2-((S)-5-methyl-5-azaspiro[2.4]heptan-6-yl)methoxy)pyridin[4,3-d]pyrimidin-7-yl)naphthalen-2-ol diformate]	7.88	6.91	7.97
CN1CC(C)(C)C[C@H]1COc1nc(N2CC3CCC(C2)N3)c2cnc(-c3cc(O)cc4ccccc34)c(F)c2n1 [Compound 139, 4-(4-((1R,5S)-3,8-diazabicyclo[3.2.1]octan-3-yl)-8-fluoro-2-((S)-1,4,4-trimethylpyrrolidin-2-yl)methoxy)pyridinyl[4,3-d]pyrimidin-7-yl)naphthalen-2-ol diformate]	7.43	5.72	6.89
CN1C[C@@H]2C[C@@H]2[C@H]1COc1nc(N2CC3CCC(C2)N3)c2cnc(-c3cc(O)cc4ccccc34)c(F)c2n1 [Compound 140, 4-(4-((1R,5S)-3,8-diazabicyclo[3.2.1]octan-3-yl)-8-fluoro-2-((1S,2S,5R)-3-methyl-3-azabicyclo[3.1.0]hexan-2-yl)methoxy)pyridin[4,3-d]pyrimidin-7-yl)naphthalen-2-ol dihydrochloride]	7.48	5.87	7.02
C[C@@H]1C[C@@H](COc2nc(N3CC4CCC(C3)N4)c3cnc(-c4cc(O)cc5ccccc45)c(F)c3n2)N(C)C1 [Compound 142, 4-(4-((1R,5S)-3,8-diazabicyclo[3.2.1]octan-3-yl)-2-((2S,4R)-1,4-methylpyrrolidin-2-yl)methoxy)-8-fluoropyridinyl[4,3-d]pyrimidin-7-yl)naphthalen-2-ol diformate]	7.80	6.40	7.52
CN(C)CCCOc1nc(N2C[C@H]3CC[C@@H](C2)N3)c2ccc(-c3cc(O)cc4ccccc34)c(F)c2n1 [Compound 143, 4-(4-((1R,5S)-3,8-diazabicyclo[3.2.1]octan-3-yl)-2-(3-(dimethylamino)propoxy)-8-fluoroquinazolin-7-yl)naphthalen-2-ol]	7.78 and 7.67	6.12	7.32
CN1CCC[C@H]1COc1nc(N2C[C@H]3CC[C@@H](C2)N3)c2ccc(-c3cc(O)cc4ccccc34)c(F)c2n1 [Compound 144, 4-(4-((1R,5S)-3,8-diazabicyclo[3.2.1]octan-3-yl)-8-fluoro-2-((S)-1-methylpyrrolidin-2-yl)methoxy)quinazolin-7-yl)naphthalen-2-ol tritrifluoroacetate]	7.84	6.74	7.75
CN1CCC[C@H]1COc1nc(N2C[C@H]3C=C[C@@H](C2)N3)c2cnc(-c3cc(O)cc4ccccc34)c(F)c2n1 [Compound 159, 4-(4-((1R,5S)-3,8-diazabicyclo[3.2.1]oct-6-en-3-yl)-8-fluoro-2-(((S)-1-methylpyrrolidin-2-yl)methoxy)pyrido[4,3-d]pyrimidin-7-yl)naphthalen-2-ol diformate]	7.51	6.71	7.26
CN1CCC[C@H]1COc1nc(N2CC3CCC(C2)N3)c2cc(F)c(-c3cc(O)cc4ccccc34)c(F)c2n1 [Compound 160, 4-(4-((1R,5S)-3,8-diazabicyclo[3.2.1]octan-3-yl)-6,8-difluoro-2-((S)-1-methylpyrrolidin-2-yl)methoxy)quinazolin-7-yl)naphthalen-2-ol dihydrochloride]	7.56	6.41	7.49
Oc1cc(-c2c(Cl)cc3c(N4CC5CCC(C4)N5)nc(OC[C@@H]4CCCN4CC4CC4)nc3c2F)c2ccccc2c1 [Compound 172, 4-(4-((1R,5S)-3,8-diazabicyclo[3.2.1]octan-3-yl)-6-chloro-2-((S)-1-(cyclopropylmethyl)pyrrolidin-2-yl)methoxy)-8-fluoroquinazolin-7-yl)naphthalen-2-ol dihydrochloride]	7.71	6.18	7.20
Oc1cc(-c2cc(F)c3c(N4CC5CCC(C4)N5)nc(OCCCN4C5CCC4COC5)nc3c2F)c2ccccc2c1 [Compound 253, 4-(2-(3-(3-Oxa-8-azabicyclo[3.2.1]octan-8-yl)propoxy)-4-((1R,5S)-3,8-diazabicyclo[3.2.1]octan-3-yl)-5,8-difluoroquinazolin-7-yl)naphthalen-2-ol formate]	7.20	5.70	6.31
((3R or 3S, 7aR or 7aS)-7a-((4-((1R,5S)-3,8-diazabicyclo[3.2.1]octan-3-yl)-6-chloro-8-fluoro-7-(3-hydroxynaphthalen-1-yl)quinazolin-2-yl)oxy)methyl)hexahydro-1H-pyrrolidin-3-yl)dimethylcarbamate tristrifluoroacetate [Compound 232b]	7.87	7.18	7.83
